From BindingDB's records for patent US20250197406 (1ST Biotherapeutics, 2025)

Biological target: Mitogen-activated protein kinase kinase kinase kinase 1 (Homo sapiens, UniProt Q92918)
Experiment: HPK1 Kinase Assay
Experimental: HPK1 kinase activity was measured by Promega's ADP-Glo™ kinase assay. In this assay, 5 ng of recombinant human HPK1 (signalchem) is incubated with 5 μL of compounds (0.5% DMSO), 5 μL of MBP (0.5 μg/μl) and 5 μL of ATP (25 μM) in buffer (40 mM Tris, 7.5; 20 mM MgCl2; 0.1 mg/ml BSA; 50 μM DTT.). The assay was started by incubating the reaction mixture in a 96-well plate at 30° C. for 40 minutes. After the incubation, 25 μL ADP-Glo reagent was added and the reaction was incubated at room temperature for 40-min to stop the reaction and degrade residual ATP. The ADP product was then converted to ATP by adding 50 μL per well of detection reagent. Luminescence was detected after 30-min room temperature incubation with the Molecular device I3X plate reader. The IC50 values were calculated from a series of percent inhibition values determined at a range of inhibitor concentration using software routines as implemented in the GraphPad Prism 7 software and SigmaPlot13.0.

Mitogen-activated protein kinase kinase kinase kinase 1, sequence (Q92918 whole entry): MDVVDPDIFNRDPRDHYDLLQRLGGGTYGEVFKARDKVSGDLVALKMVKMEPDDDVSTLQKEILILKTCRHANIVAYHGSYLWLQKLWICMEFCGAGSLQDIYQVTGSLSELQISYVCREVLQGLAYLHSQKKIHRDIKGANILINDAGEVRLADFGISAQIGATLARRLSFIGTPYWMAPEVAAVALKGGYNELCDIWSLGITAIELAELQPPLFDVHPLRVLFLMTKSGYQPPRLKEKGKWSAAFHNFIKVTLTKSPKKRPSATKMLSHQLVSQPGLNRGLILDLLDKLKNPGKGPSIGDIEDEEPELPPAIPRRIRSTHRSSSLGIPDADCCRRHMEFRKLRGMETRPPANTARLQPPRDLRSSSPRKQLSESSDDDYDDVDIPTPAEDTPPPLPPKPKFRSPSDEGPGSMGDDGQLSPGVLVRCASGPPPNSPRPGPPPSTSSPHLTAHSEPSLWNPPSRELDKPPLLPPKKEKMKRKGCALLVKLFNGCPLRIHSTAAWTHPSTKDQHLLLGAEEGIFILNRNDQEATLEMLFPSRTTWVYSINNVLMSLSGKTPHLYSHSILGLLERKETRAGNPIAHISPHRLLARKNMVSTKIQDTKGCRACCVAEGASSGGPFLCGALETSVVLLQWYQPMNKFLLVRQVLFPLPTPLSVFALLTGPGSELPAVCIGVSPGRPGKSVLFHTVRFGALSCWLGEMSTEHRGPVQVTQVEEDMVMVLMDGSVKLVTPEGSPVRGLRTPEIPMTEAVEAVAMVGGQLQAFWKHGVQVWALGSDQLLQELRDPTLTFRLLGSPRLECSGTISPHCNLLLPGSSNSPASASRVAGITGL

Row | Compound | IC50
1 | CC(C)Nc1c(F)c(Cl)c(-c2cn3cc(NC(=O)C4(F)CC4)nc3cn2)c2cn[nH]c12 [US20250197406, Example 52] | < 100 nM
2 | CC(=O)Nc1cn2cc(-c3c(Cl)c(F)c(NC(C)C)c4[nH]ncc34)ncc2n1 [US20250197406, Example 43] | < 100 nM
